B1: Purified PALP: human placental alkaline phosphatase purified to homogeneity from commercial Sigma-Aldrich PALP; it is 'PALP' in Table 2, b31 and b104 (protein, UniProt P05187 23-506, looked up)
Alkaline phosphatase, …: IIPVEEENPDFWNREAAEALGAAKKLQPAQTAAKNLIIFLGDGMGVSTVTAARILKGQKKDKLGPEIPLAMDRFPYVALSKTYNVDKHVPDSGATATAYLCGVKGNFQTIGLSAAARFNQCNTTRGNEVISVMNRAKKAGKSVGVVTTTRVQHASPAGTYAHTVNRNWYSDADVPASARQEGCQDIATQLISNMDIDVILGGGRKYMFRMGTPDPEYPDDYSQGGTRLDGKNLVQEWLAKRQGARYVWNRTELMQASLDPSVTHLMGLFEPGDMKYEIHRDSTLDPSLMEMTEAALRLLSRNPRGFFLFVEGGRIDHGHHESRAYRALTETIMFDDAIERAGQLTSEEDTLSLVTADHSHVFSFGGYPLRGSSIFGLAPGKARDRKAYTVLLYGNGPGYVLKDGARPDVTESESGSPEYRQQSAVPLDEETHAGEDVAVFARGPQAHLVHGVQEQTFIAHVMAFAACLEPYTACDLAPPAGTTD

How the values were obtained:
B16 mouse melanoma [1] = experiment: B16 mouse melanoma tumor growth (tumor volume by calipers); type: in vivo; details: for Tumor volumes; Day 8 after tumor transplantation: local cream 150 mg per application on days 8, 11, 13, 15, 18, 20, day 8 = start, mean of 5 animals
From the text: The B16 mouse melanoma tumors were developed in first generation hybrid BDF1 (C57 B1 female×DBA/2 male) adult female mice kept at specified pathogen free (SPF) hygienic level. These mice have the complete immune system. The human H-168 melanoma tumors were developed in the homozygous line of C.B.-171 cr scid/scid mice (with severely compromised immune deficiency) which is an inbred mutant strain. In each case, tumor tissue fragments of about 0.1-cm^3 were surgically implanted subcutaneously into the intrascapular region to develop the tumors. Each tumor fragment contained 1-1.5×10^6 cells. The animals were kept in macrolon cages on ventilated rack at 22-24° C. (50-60% humidity) with lighting regimen of 12/12 h light/dark. The animals had free access to tap water and were fed with sterilized standard diet (Charles River VRF1, Germany) ad libitum. The animals were taken care of according to the “Guiding Principle for the care and use of Animals” based upon the Helsinki declaration and they were approved by the local ethical committee.
The mice bearing the rapidly growing B16 melanoma tumors were used after 8-11 days of tumor transplantation, while mice bearing the slower growing H-168 melanoma were used after 17 days of transplantation. In either case, when the tumor-bearing mice were used, the size of the tumors was in the 0.3-0.6 cm^3 range; animals were selected so that in the same treatment group the difference in tumor size was no greater than 0.1 cm^3 PALP, TF, or AT were used topically in a cream alone or in combination; in each case, 150-mg cream was applied on the tumor and the vicinity of tumor area (with about 0.3-0.5 cm margin). The tumor volume was determined by using calipers; this technique is well known to one having ordinary skill in the art. Tumor volume was calculated according to the generally accepted formula: V=a^2×b×π/6, where “a” and “b” mean the shortest and longest diameter, respectively, of the measured tumor.
The aggressive B16 mouse melanoma model was developed as described under Example 3. On day 11 after transplantation of tumor cells, the animals were either remained untreated (Group 1) or were treated with 15 mg/kg highly purified PALP via subcutaneous administration (Group 2). In Group 3, the tumors were treated locally with 150-mg of cream containing 4 mg commercial PALP in 1 g of Vaselinum cholesteratum. In Group 4, the animals were treated simultaneously locally with commercial PALP containing cream and via subcutaneous injection with highly purified PALP. Each treatment was performed once daily for seven consecutive days (i.e., treatments were terminated on day 18). Locally administered PALP preparation, and to a somewhat smaller extent injected purified PALP, inhibited the growth of B16 melanoma. The inhibitory effects remained significant even on day 23, 5 days after the last treatment. When PALP preparations were simultaneously administered via both routes, the combined effects were greater than the individual effects. […] Alternatively, optimal effects could require the presence of all 3 proteins. Experiments presented later confirm that the inhibitory effects of purified PALP on melanoma growth are greater in the simultaneous presence of TF and AT.
The B16 mouse melanoma model was developed as described under Example 3. On day 8 after transplantation of tumor cells, the animals either remained untreated (Group 1) or in other animal groups the tumors were treated locally with creams (150 mg per application) containing active components as follows: Group 2, 0.4 mg of purified PALP per 1-g Vaseline; Group 3, 0.5 mg of purified partially iron-saturated TF per 1-g Vaseline; Group 4, 0.4 mg of PALP+0.5 mg TF per 1-g Vaseline; Group 5, 1.2 mg of purified AT per 1-g Vaseline; Group 6, 0.4 mg of PALP+0.5 mg TF+1.2 mg of purified AT per 1-g Vaseline; and Group 7, Vaselinum cholesteratum alone. Each treatment was performed once daily on days 8, 11, 13, 15, 18 and 20. […]

B16 mouse melanoma [2] = experiment: as above; type: in vivo; details: subcutaneous injection
fibroblast = experiment: Fibroblast proliferation in vitro after pre-heating of TF; type: cell-based; details: pre-heating at up to 75° C. for 30 min
Protocol: The stimulatory effects of TF on fibroblast proliferation in vitro are not altered by pre-heating it at up to 75° C. for 30 min. Thus, pre-heating of TF-containing compositions to enhance the effects of other components, such as PALP and AT will be unlikely to alter other effects of TF such as inhibition of melanoma growth.

B16 melanoma = experiment: Lung metastasis of B16 melanoma (macroscopic lung colonies); type: in vivo, mouse; details: treatments from day 11, daily, counted 21 days after starting the treatments, 7 animals, parentheses = smallest and highest numbers in the group
Protocol: B16 melanoma cells are highly metastatic that are known to preferably form metastatic colonies in the lung. The goal of this experiment was to determine if any of the components present in commercial PALP or the mode of application affect the metastatic process.
The B16 melanoma model described under Example 3 was used. The treatments of mice bearing the rapidly growing B16 melanoma were started 11 days after tumor transplantation; additional treatments were performed on each day for six consecutive days. In each experimental group seven animals were used. In the first group, animal tumors were treated locally with 200 mg Vaseline (control group). In the second group, animal tumors were locally treated with 200 mg Vaseline cream containing 4 mg commercial PALP per 1-g Vaseline. In the third group, animals were subcutaneously injected commercial PALP (1.5 mg per animal or 60 mg per kg). In the fourth group, animals were treated with commercial PALP both locally and subcutaneously. In the fifth group, animals were subcutaneously injected highly purified PALP (0.35 mg per animal or 14 mg per 1 kg). In the sixth group, animals were subcutaneously injected partially iron-saturated human TF (0.4 mg per animal or 16 mg per 1 kg). In the seventh group, animal tumors were locally treated with 200 mg Vaseline cream containing 1.0 mg human TF per 1 g Vaseline. In the last group, the tumors were untreated during the entire period of experiment. The macroscopic colonies were counted in the lung (7 animals in each group) 21 days after starting the treatments. The data are presented in TABLE 5; numbers in the parentheses indicate the smallest and highest numbers of metastatic lung colonies in the same group.

[3] = Organ pathology in mice after repeated injection; type: in vivo; details: 16 mg/kg injected 15-times over a 3 weeks period
[4] = subcutaneous injection, CCDTHT 4.6 mg/kg once daily day 11-22, mean of 5 mice
[5] = BDF1 mice, 5 days after the last treatment, mean of 7 animals
[6] = BDF1 mice, day 11 = start of treatment, once daily for seven consecutive days, mean of 7 animals
[7] = BDF1 mice, treated once daily from day 11 for seven days, mean of 7 animals
[8] = BDF1 mice, treated once daily from day 11 for seven days, treatments terminated on day 18, mean of 7 animals
[9] = BDF1 mice, treatments terminated on day 18, mean of 7 animals
[10] = local cream 150 mg per application on days 8, 11, 13, 15, 18, 20, mean of 5 animals

| Molecule | Tumor volumes; Day 23 after tumor transplantation (B16 mouse melanoma [1]; [5]) [cm^3] | Tumor volumes; Day 11 after tumor transplantation (B16 mouse melanoma [1]; [6]) [cm^3] | Tumor volumes; Day 14 after tumor transplantation (B16 mouse melanoma [1]; [7]) [cm^3] | Tumor volumes; Day 16 after tumor transplantation (B16 mouse melanoma [1]; [7]) [cm^3] | Tumor volumes; Day 18 after tumor transplantation (B16 mouse melanoma [1]; [8]) [cm^3] | Tumor volumes; Day 21 after tumor transplantation (B16 mouse melanoma [1]; [9]) [cm^3] | Tumor volumes; Day 8 after tumor transplantation (B16 mouse melanoma [1]) [cm^3] | Tumor volumes; Day 11 after tumor transplantation (B16 mouse melanoma [1]; [10]) [cm^3] | Tumor volumes; Day 13 after tumor transplantation (B16 mouse melanoma [1]; [10]) [cm^3] | Tumor volumes; Day 15 after tumor transplantation (B16 mouse melanoma [1]; [10]) [cm^3] | Tumor volumes; Day 18 after tumor transplantation (B16 mouse melanoma [1]; [10]) [cm^3] | Tumor volumes; Day 20 after tumor transplantation (B16 mouse melanoma [1]; [10]) [cm^3] | Number of lung colonies per lung* (B16 melanoma) | also measured |
| --- | --- | --- | --- | --- | --- | --- | --- | --- | --- | --- | --- | --- | --- | --- |
| CC[N+](C)(CC)CCOCc1ccc2sc3ccccc3c(=O)c2c1.[I-] [CCDTHT, N,N-diethyl-N-methyl-2-[(9-oxo-9H-thioxanthen-2-yl)methoxy]-ethanaminium iodide] |  |  |  |  |  |  |  |  |  |  |  |  |  | Tumor volumes; Day 14 after tumor transplantation (B16 mouse melanoma [1]; [4]): 1.20 cm^3; Tumor volumes; Day 16 after tumor transplantation (B16 mouse melanoma [1]; [4]): 1.40 cm^3; Tumor volumes; Day 18 after tumor transplantation (B16 mouse melanoma [1]; [4]): 1.90 cm^3; Tumor volumes; Day 23 after tumor transplantation (B16 mouse melanoma [1]; [4]): 3.00 cm^3; Tumor volumes; Day 11 after tumor transplantation (B16 mouse melanoma [2]; CCDTHT 4.6 mg/kg once daily day 11-22, day 11 = start, mean of 5 mice): 0.83 cm^3; Tumor volumes; Day 21 after tumor transplantation (B16 mouse melanoma [2]; CCDTHT 4.6 mg/kg once daily day 11-22, mean of 5 mice): 2.60 cm^3 |
| TF: human transferrin, partially iron-saturated, Sigma-Aldrich T 3309 | 3.88 | 0.71 | 1.00 | 1.13 | 2.00 | 3.12 | 0.34 | 0.79 | 1.38 | 2.19 | 3.07 | 3.83 | doubling | Stimulatory effects on fibroblast proliferation in vitro after pre-heating (fibroblast): not altered; Number of lung colonies per lung* (B16 melanoma; listed as TF, local applications): 17 (10-21); Number of lung colonies per lung* (B16 melanoma; listed as TF, subcutaneous applications): 38 (29-44) |
| AT: human α1-antitrypsin, essentially pure, purified from commercial PALP preparation |  |  |  |  |  |  | 0.42 | 0.83 | 1.60 | 2.55 | 3.48 | 4.80 |  |  |
| B1 | 3.63 | 0.75 | 1.16 | 1.55 | 2.13 | 3.47 |  |  |  |  |  |  | 16 (9-18) | Pathological effects (cell death or immune cell infiltration) in liver, lung, heart, blood, kidney, muscle, brain, spleen, intestine [3]: has not caused any significant pathological effects |
